One data set addresses Vasopressin V2 (Rattus norvegicus, UniProt Q00788). Description: Vasopressin V2 agonist effects in normal conscious water-loaded rats. Further details: from tissue; host or cells: whole living Sprague-Dawley rat; the receptor is the animal's own (renal, by own knowledge). The data set is classed as in vivo. The note with it: Sprague-Dawley (CD) rats, 10 mg/kg oral; for Osmolality (% Increase): change in osmolality as percent of control; for Urine Volume (% decrease): vs. control, urine collected four hours. The source says: Vasopressin V2 Agonist Effects of Test Compounds in Normal Conscious Water-loaded Rats
Male or female normotensive Sprague-Dawley rats (Charles River Laboratories, Inc., Kingston, N.Y.) of 350-500 g body weight were supplied with standard rodent diet (Purina Rodent Lab. Chow 5001) and water ad libitum. On the day of test, rats were placed individually into metabolic cages equipped with devices to separate the feces from the urine and containers for collection of urine. […] The vehicle used was 20% dimethylsulfoxide (DMSO) in 2.5% preboiled corn starch. Thirty minutes after dosing the test compound, rats were gavaged with water at 30 ml/kg into the stomach using a feeding needle. During the test, rats were not provided with water or food. Urine was collected for four hours after dosing of the test compound. At the end of four hours, urine volume was measured. Urinary osmolality was determined using a Fiske One-Ten Osmometer (Fiske Associates, Norwood, Mass., 02062) or an Advanced CRYOMATIC Osmometer, Model 3C.2 (Advanced Instruments, Norwood, Mass.). Determinations of Na^+, K^+ and Cl^− ion were carried out using ion specific electrodes in a Beckman SYNCHRON EL-ISE Electrolyte System analyzer. The urinary osmolality should increase proportionally. In the screening test, two rats were used for each compound. If the difference in the urine volume of the two rats was greater than 50%, a third rat was used.

From US6831079B1, “Vasopressin agonist formulation and process” (American Cyanamid Company, priority 1999, dated 2004) come the findings set out here.

Sequence of Vasopressin V2 (Q00788 whole entry): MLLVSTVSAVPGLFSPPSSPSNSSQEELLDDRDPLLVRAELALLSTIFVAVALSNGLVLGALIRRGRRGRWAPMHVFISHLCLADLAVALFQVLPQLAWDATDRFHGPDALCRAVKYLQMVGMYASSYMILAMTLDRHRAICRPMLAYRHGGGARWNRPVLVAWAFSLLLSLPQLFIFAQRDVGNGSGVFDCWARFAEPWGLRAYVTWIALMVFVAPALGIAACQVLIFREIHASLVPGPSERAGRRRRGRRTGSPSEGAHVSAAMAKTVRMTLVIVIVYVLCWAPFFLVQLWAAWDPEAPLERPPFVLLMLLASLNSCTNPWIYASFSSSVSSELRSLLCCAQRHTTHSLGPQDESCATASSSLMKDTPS

As a reminder, the melting point is the temperature of the solid-liquid transition. `CCCC(=O)n1ccc(-c2ccc(C(=O)N3Cc4cccn4Cc4ccccc43)cc2)n1` [Example 33, 1-{3-[4-(5H,11H-Pyrrolo[2,1-c][1,4]benzodiazepine-10-carbonyl)-phenyl]-pyrazol-1-yl}-butan-1-one]: the melting point was 105 to 110 °C. Also, at Vasopressin V2, the “Osmolality (% Increase)” value is 362% and the “Urine Volume (% decrease)” value stood at 68%.
Taken in the same sequence, the figures for `O=C(c1ccc(-c2ccn(C(=O)c3ccc(F)cc3Cl)n2)cc1)N1Cc2cccn2Cc2ccccc21` [Example 37, {4-[1-(2-Chloro-4-fluoro-benzoyl)-1H-pyrazol-3-yl]-phenyl}-(5H,11H-pyrrolo[2,1-c][1,4]benzodiazepin-10-yl}methanone] were 150 to 157 °C, 370% and 71%.
`Cc1nc(-c2ccc(C(=O)N3Cc4cccn4Cc4ccccc43)cc2)n(C)n1` [Example 51, [4-(2,5-Dimethyl-2H-[1,2,4]triazol-3-yl)-phenyl]-(5H,11H-pyrrolo[2,1-c]-[1,4]benzodiazepin-10-yl)-methanone] gave a melting point of 193 to 195 °C. Moreover, the “Urine Volume (% decrease)” value on Vasopressin V2 was 72%.
`Cc1noc(-c2ccc(C(=O)N3Cc4cccn4Cc4ccccc43)cc2)n1` [Example 52, [4-(3-Methyl[1,2,4]oxadiazol-5-yl)-phenyl]-(5H,11H-pyrrolo-[2,1-c][1,4]-benzodiazepin-10-yl)-methanone] returned a melting point of 177 to 179 °C. Further, on Vasopressin V2, the “Osmolality (% Increase)” value worked out at 261% and the “Urine Volume (% decrease)” value amounted to 66%.
Taken in the same sequence, the figures for `Cn1cc(-c2ccc(C(=O)N3Cc4cccn4Cc4ccccc43)cc2)cn1` [Example 55, [4-(1-Methyl-1H-pyrazol-4-yl)-phenyl]-(5H,11H-pyrrolo[2,1-c][1,4]-benzodiazepin-10-yl)-methanone] were 200 to 201 °C, 164% and 80%.
Turning to `Cn1cc(-c2ccc(C(=O)N3Cc4cccn4Cc4ccccc43)cn2)cn1` [Example 57, [6-(1-Methyl-1H-pyrazol-4-yl)-pyridin-3-yl]-(5H,11H-pyrrolo[2,1-c][1,4]-benzodiazepin-10-yl)-methanone], the melting point was 173 to 175 °C. At Vasopressin V2, the “Osmolality (% Increase)” value was determined as 288% and the “Urine Volume (% decrease)” value was found to be 77%.
The like results for `Cc1cnn(-c2ccc(C(=O)N3Cc4cccn4Cc4ccccc43)cc2)c1` [Example 60, [4-(4-Methyl-pyrazol-1-yl)-phenyl]-(5H,11H-pyrrolo[2,1-c][1,4]-benzodiazepin-10-yl)-methanone] were, in that order, 179 to 181 °C, 165% and 54%.
The like results for `O=C(c1ccc(-n2ccc(C(F)(F)F)n2)cc1)N1Cc2cccn2Cc2ccccc21` [Example 62, (5H,11H-Pyrrolo[2,1-c][1,4]benzodiazepin-10-yl)-[4-(3-trifluoromethyl-pyrazol-1-yl)-phenyl]-methanone] were, in that order, 166 to 167 °C, 150% and 22%.
Taken in the same sequence, the figures for `Cc1cn(-c2ccc(C(=O)N3Cc4cccn4Cc4ccccc43)cc2)cn1` [Example 64, [4-(4-Methyl-imidazol-1-yl)-phenyl]-(5H,11H-pyrrolo[2,1-c][1,4]-benzodiazepin-10-yl)-methanone] were 140 to 145 °C, 349% and 79%.
`Cn1ccc(-c2ccc(C(=O)N3Cc4cccn4Cc4ccccc43)c(Cl)c2)n1` [Example 71, [2-Chloro-4-(1-methyl-1H-pyrazol-3-yl)-phenyl]-(5H,11H-pyrrolo[2,1-c]-[1,4]benzodiazepine-10-yl)-methanone] displayed a melting point of 148.5 to 150 °C. For the same compound, on Vasopressin V2, the “Osmolality (% Increase)” value is 264% and the “Urine Volume (% decrease)” value was found to be 84%.
The like results for `O=C(O)c1ccc(C(=O)N2Cc3cccn3Cc3ccccc32)c(Cl)c1` [Example 78, 3-Chloro-4-(5H,11H-Pyrrolo[2,1-c][1,4]benzodiazepine-10-carbonyl)-benzoic Acid] were, in that order, 198 to 199 °C, 115% and 21%.
The like results for `NC(=O)c1ccc(C(=O)N2Cc3cccn3Cc3ccccc32)c(Cl)c1` [Example 79, 3-Chloro-4-(5H,11H-pyrrolo[2,1-c][1,4]benzodiazepine-10-carbonyl)-benzamide] were, in that order, 211 to 212 °C, 123% and 38%.
Taken in the same sequence, the figures for `O=C(c1ccc(-c2ncn[nH]2)cc1Cl)N1Cc2cccn2Cc2ccccc21` [Example 83, [2-Chloro-4-(2H-1,2,4-triazol-3-yl)-phenyl]-(5H,11H-pyrrolo[2,1-c][1,4]-benzodiazepin-10-yl)-methanone] were 174 to 177 °C, 442% and 85%.
For `O=C(c1ccc(-c2nnn[nH]2)cc1Cl)N1Cc2cccn2Cc2ccccc21` [Example 86, [2-Chloro-4-(1H-tetrazol-5-yl)-phenyl]-(5H,11H-pyrrolo[2,1-c][1,4]benzodiazepin-10-yl)-methanone], the melting point was in the range of 218 to 220 °C. Also, on Vasopressin V2, the “Osmolality (% Increase)” value was determined as 86% and the “Urine Volume (% decrease)” value is reported as 5%.
Take `Cc1ccn(-c2ccc(C(=O)N3Cc4ccc(CN(C)C)n4Cc4ccccc43)c(Cl)c2)n1` [Example 87, [2-Chloro-4-(3-methyl-pyrazol-1-yl)-phenyl]-(3-dimethylaminomethyl-5H,11H-pyrrolo[2,1-c][1,4]benzodiazepin-10-yl)-methanone]: the melting point was in the range of 100 to 102 °C. Besides, on Vasopressin V2, the “Osmolality (% Increase)” value was determined as 214% and the “Urine Volume (% decrease)” value came to 71%.
The like results for `Cc1ccn(-c2ccc(C(=O)N3Cc4ccc(Br)n4Cc4ccccc43)c(Cl)c2)n1` [Example 88, (3-Bromo-5H,11H-pyrrolo[2,1-c][1,4]benzodiazepin-10-yl)-[2-chloro-4-(3-methyl-pyrazol-1-yl)-phenyl]-methanone] were, in that order, 148 to 149 °C (dec.), 226% and 68%.
Taken in the same sequence, the figures for `Cc1ccn(-c2ccc(C(=O)N3Cc4cccn4Cc4ccccc43)c(F)c2)n1` [Example 92, [2-Fluoro-4-(3-methyl-pyrazol-1-yl)-phenyl]-(5H,11H-pyrrolo[2,1-c][1,4]-benzodiazepin-10-yl)-methanone] were 192 to 193 °C, 454% and 69%.
The like results for `Cc1ccn(-c2ccc(C(=O)O)c(Cl)c2)n1` [Example 97, 2-Chloro-4-(3-methyl-1H-pyrazol-1-yl)-benzoic Acid] were, in that order, 192 to 193 °C, 106% and 3%.
Take `O=C(c1ccc(-n2cccn2)nc1Cl)N1Cc2cccn2Cc2ccccc21` [Example 99, (2-Chloro-6-pyrazol-1-yl-pyridin-3-yl)-(5H,11H-pyrrolo[2,1-c][1,4]benzodiazepin-10-yl)-methanone]: the melting point was in the range of 133 to 135 °C. On Vasopressin V2, the “Osmolality (% Increase)” value came out at 205% and the “Urine Volume (% decrease)” value is 43%.
